The results in this text go back to ChEMBL document CHEMBL5465560, “Selectivity Literature for EUbOPEN Chemogenomic Library” (2024).

For test [1], the target named is Macrophage-stimulating protein receptor (Homo sapiens, UniProt Q04912). The test is described as follows: Selectivity interaction (Ambit KINOMEscan and KiNATiv profiling in Jurkat cells) EUB0000090b MST1R. Format: cell-based. To be noted: at 1 µM.
Test [2] concerns the target Interferon-induced, double-stranded RNA-activated protein kinase (Homo sapiens) (UniProt P19525). The test is described as follows: Selectivity interaction (KinomeScan (DiscoverX)) EUB0000699a EIF2AK2. To be noted: at 10 µM.
For test [3], the target named is T1, Serine/threonine-protein kinase LATS2 (Homo sapiens) (UniProt Q9NRM7).
T1 sequence (whole entry): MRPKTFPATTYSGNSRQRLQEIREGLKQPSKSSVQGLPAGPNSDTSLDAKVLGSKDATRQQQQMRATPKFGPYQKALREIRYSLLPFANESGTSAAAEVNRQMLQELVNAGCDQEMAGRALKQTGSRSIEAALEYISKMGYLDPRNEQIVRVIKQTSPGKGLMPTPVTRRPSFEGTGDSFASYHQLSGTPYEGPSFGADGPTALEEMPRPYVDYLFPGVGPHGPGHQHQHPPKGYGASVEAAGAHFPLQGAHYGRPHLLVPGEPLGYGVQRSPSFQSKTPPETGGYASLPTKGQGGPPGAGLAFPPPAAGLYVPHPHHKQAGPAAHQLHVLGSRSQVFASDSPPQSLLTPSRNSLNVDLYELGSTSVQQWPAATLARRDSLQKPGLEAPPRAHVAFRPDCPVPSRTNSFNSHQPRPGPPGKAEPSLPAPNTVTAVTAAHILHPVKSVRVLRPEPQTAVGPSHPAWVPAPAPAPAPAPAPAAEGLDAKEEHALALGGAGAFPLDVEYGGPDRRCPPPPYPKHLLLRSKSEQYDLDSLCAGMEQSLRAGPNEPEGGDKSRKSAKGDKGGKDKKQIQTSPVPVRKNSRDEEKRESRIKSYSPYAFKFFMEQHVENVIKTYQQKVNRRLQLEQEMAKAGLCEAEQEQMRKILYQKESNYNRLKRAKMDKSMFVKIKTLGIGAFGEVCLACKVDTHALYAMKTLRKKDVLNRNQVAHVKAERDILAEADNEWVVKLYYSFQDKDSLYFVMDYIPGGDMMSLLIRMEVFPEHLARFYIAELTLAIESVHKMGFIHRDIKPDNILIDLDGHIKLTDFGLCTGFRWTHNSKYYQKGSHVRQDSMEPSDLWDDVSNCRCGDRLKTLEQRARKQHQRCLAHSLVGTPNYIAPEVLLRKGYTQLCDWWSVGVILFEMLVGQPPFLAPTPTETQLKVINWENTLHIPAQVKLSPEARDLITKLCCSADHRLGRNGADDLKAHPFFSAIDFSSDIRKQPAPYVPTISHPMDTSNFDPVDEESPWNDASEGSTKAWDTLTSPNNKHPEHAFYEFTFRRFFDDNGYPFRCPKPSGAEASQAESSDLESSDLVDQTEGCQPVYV
The test is described as follows: Selectivity interaction (KinomeScan (DiscoverX)) EUB0001079a LATS2. To be noted: at 1 µM.

Test [4] deals with T2, Ephrin type-A receptor 1 (Homo sapiens) (UniProt P21709).
T2 sequence (whole entry): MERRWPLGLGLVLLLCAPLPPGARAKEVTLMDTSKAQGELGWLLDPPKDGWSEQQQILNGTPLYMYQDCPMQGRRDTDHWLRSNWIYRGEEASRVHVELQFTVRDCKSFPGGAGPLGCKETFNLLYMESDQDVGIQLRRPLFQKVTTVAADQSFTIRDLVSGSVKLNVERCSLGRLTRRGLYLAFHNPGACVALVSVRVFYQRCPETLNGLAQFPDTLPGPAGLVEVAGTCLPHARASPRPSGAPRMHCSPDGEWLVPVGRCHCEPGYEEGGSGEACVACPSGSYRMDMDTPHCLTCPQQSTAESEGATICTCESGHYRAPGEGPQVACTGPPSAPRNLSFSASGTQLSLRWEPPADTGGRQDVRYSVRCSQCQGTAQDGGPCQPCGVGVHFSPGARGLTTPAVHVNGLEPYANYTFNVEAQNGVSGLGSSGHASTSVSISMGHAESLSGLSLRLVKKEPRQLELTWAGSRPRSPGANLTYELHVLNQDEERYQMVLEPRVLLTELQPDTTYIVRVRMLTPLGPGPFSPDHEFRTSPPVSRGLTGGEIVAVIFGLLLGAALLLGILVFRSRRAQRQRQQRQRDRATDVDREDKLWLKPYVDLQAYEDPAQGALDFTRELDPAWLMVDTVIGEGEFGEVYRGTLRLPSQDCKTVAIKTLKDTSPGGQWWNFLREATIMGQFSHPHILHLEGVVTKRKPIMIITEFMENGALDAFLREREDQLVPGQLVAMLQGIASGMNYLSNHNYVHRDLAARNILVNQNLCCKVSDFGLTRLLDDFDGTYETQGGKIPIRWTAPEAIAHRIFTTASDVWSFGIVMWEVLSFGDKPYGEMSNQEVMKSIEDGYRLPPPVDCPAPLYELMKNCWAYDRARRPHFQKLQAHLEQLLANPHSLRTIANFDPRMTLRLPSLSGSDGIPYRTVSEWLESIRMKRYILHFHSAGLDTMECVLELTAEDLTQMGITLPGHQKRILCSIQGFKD
As to the kind of experiment: Selectivity interaction (KinomeScan (DiscoverX)) EUB0000092b EPHA1. To be noted: at 10 µM.

The target in test [5] is Microtubule-associated serine/threonine-protein kinase 1 (Homo sapiens) (UniProt Q9Y2H9). As to the kind of experiment: Selectivity interaction (KinomeScan (DiscoverX)) EUB0001049a MAST1. To be noted: at 1 µM.
Microtubule-associated serine/threonine-protein kinase 1 (Homo sapiens), sequence (Q9Y2H9 whole entry, looked up): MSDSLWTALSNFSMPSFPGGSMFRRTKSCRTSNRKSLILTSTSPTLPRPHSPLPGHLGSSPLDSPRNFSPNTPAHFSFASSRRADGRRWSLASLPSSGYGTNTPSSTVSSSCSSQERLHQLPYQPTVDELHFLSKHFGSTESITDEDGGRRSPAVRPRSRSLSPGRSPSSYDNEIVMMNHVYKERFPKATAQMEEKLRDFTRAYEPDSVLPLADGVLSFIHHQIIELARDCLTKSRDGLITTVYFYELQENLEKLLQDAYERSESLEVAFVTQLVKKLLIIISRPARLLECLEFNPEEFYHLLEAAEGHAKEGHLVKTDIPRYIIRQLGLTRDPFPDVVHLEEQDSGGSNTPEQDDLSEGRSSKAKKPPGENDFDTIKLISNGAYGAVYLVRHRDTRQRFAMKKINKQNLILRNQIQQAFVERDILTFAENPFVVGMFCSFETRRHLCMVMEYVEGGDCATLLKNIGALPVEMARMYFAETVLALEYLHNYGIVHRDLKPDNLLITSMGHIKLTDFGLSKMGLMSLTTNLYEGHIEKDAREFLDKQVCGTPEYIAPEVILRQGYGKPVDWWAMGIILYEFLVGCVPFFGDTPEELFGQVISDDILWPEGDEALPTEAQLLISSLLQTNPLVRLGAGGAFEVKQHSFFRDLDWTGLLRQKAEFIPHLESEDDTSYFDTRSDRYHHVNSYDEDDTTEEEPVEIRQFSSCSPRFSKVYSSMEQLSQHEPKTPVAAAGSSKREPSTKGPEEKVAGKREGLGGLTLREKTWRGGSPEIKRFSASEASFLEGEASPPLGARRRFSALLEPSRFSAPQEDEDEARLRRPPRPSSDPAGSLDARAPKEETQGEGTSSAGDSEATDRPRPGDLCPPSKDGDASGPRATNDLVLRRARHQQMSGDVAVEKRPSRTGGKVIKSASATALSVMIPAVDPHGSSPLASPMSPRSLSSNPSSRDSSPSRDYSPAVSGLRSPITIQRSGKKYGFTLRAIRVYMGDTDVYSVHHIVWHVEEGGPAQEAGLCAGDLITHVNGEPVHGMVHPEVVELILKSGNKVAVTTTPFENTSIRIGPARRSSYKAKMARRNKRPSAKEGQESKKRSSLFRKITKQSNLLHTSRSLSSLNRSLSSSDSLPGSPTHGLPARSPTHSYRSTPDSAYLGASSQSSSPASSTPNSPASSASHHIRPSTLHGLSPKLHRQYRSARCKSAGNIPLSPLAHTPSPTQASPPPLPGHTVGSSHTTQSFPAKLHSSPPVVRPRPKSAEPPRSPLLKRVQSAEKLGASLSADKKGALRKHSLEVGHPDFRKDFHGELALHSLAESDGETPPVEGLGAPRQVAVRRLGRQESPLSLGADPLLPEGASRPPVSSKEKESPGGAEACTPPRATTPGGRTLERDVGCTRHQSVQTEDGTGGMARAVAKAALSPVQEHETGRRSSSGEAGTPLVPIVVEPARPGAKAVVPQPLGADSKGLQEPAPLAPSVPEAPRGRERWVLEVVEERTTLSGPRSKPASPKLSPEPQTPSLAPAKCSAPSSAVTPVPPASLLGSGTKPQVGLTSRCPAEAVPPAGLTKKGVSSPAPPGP
In test [6] the target is 5'-AMP-activated protein kinase catalytic subunit alpha-1 (Homo sapiens, UniProt Q13131). The test is described as follows: Selectivity interaction (ActivX KiNativ screen (kinase selectivity in THP-1 cell lysates)) EUB0000639a PRKAA1. To be noted: lysate, at 1 µM. It counts as subcellular.
5'-AMP-activated protein kinase catalytic subunit alpha-1, sequence (Q13131 whole entry, looked up): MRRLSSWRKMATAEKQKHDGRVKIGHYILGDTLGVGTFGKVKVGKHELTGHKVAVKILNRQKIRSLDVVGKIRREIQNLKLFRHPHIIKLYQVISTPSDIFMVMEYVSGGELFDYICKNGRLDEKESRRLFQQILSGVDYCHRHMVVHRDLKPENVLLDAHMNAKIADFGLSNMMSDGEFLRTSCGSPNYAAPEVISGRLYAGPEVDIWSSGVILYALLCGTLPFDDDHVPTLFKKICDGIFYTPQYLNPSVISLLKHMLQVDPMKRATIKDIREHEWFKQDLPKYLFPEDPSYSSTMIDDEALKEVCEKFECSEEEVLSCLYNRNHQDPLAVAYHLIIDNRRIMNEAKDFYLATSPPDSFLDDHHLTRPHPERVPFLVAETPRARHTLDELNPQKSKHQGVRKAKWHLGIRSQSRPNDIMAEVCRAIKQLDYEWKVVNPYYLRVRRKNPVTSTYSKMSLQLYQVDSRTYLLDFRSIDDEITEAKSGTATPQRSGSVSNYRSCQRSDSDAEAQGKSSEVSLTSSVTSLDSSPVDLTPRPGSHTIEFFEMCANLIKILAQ
For test [7], the target named is Maternal embryonic leucine zipper kinase (Homo sapiens) (UniProt Q14680). As to the kind of experiment: Selectivity interaction (Kinase panel (Invitrogen)) EUB0000639a MELK. To be noted: at 200 nM.
Maternal embryonic leucine zipper kinase (Homo sapiens), sequence (Q14680 whole entry, looked up): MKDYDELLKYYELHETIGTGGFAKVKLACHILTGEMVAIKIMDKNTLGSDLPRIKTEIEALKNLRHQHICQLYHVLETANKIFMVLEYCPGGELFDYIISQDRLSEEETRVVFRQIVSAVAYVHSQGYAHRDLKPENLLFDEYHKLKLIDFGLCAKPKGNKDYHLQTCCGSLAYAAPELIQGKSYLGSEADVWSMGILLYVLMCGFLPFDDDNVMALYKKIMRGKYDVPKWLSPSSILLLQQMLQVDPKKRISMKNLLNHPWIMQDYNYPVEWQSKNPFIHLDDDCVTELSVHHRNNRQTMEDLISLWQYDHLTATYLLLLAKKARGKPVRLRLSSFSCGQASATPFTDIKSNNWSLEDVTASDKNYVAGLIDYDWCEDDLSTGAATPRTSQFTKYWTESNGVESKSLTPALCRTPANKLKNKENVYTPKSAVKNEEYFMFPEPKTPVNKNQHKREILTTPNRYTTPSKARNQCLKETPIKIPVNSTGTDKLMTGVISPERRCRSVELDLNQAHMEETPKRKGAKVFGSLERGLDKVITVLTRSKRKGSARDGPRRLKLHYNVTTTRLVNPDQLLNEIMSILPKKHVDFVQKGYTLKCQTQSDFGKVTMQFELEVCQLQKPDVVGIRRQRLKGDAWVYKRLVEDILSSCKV
The target in test [8] is Mitogen-activated protein kinase 1 (Homo sapiens, UniProt P28482). The test is described as follows: Selectivity interaction (ActivX KiNativ screen (ex vivo kinase selectivity in human PBMCs)) EUB0001619a MAPK1. It counts as cell-based. To be noted: PBMC, at 1 µM.
Mitogen-activated protein kinase 1, sequence (P28482 whole entry): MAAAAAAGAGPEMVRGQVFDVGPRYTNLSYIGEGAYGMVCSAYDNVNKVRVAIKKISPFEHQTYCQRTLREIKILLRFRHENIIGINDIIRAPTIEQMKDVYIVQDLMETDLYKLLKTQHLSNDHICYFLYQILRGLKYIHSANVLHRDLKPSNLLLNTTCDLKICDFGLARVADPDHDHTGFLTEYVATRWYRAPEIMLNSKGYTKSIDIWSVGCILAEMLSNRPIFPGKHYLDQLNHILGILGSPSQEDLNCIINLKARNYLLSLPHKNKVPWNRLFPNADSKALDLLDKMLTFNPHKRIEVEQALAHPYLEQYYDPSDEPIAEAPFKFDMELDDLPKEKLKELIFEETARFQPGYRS

Interferon-induced, double-stranded RNA-activated protein kinase (Homo sapiens), sequence (P19525 whole entry): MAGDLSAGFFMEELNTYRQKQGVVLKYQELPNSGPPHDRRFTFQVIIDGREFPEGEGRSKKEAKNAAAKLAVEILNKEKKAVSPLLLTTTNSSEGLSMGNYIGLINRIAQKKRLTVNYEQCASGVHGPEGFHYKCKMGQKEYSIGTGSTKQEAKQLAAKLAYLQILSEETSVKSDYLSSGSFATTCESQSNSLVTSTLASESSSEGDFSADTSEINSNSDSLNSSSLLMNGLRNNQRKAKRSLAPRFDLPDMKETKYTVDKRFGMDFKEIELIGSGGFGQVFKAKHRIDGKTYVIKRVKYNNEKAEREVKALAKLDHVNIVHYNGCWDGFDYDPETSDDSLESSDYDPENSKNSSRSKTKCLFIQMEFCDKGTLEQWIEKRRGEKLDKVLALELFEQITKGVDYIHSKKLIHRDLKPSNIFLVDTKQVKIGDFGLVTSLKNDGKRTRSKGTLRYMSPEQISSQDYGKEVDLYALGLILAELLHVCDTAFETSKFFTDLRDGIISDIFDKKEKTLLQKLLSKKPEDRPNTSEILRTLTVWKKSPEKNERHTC
Macrophage-stimulating protein receptor, sequence (Q04912 25-304 limits assumed): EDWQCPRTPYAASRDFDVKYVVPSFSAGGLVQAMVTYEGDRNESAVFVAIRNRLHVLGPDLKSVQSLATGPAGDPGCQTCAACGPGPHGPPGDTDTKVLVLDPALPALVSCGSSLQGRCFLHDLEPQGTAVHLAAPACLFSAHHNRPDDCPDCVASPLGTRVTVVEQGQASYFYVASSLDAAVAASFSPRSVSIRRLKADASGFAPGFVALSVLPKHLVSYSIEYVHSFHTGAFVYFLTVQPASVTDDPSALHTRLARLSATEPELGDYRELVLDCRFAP
Macrophage-stimulating protein receptor, sequence (Q04912 310-1400 limits assumed): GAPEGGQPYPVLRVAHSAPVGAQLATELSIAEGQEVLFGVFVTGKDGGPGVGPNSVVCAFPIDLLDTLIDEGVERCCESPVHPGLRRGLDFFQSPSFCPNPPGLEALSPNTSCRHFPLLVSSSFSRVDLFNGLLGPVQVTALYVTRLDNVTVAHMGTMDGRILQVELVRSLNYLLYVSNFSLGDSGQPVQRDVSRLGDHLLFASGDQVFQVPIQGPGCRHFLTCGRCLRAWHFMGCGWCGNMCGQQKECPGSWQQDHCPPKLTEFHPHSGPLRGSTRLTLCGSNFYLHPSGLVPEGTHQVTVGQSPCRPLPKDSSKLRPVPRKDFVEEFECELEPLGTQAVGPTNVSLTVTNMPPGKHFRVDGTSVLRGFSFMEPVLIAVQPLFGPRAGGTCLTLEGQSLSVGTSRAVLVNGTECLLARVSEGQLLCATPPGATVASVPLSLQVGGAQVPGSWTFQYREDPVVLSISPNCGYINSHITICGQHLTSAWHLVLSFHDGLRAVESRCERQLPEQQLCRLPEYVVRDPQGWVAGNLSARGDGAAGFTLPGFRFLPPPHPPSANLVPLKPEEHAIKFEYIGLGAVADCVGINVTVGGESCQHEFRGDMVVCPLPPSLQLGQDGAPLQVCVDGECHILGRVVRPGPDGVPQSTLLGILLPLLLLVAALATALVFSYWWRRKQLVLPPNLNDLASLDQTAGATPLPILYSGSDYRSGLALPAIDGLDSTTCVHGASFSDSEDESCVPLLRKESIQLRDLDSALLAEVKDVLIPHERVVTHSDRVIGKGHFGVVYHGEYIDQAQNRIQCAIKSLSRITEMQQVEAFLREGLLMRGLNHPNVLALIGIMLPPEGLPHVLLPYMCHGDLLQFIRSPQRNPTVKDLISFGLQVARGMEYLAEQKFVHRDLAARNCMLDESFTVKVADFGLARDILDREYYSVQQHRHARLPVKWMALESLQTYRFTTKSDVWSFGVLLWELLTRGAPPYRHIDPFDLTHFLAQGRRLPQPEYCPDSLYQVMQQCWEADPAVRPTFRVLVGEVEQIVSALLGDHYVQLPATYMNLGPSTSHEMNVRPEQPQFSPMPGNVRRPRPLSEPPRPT

The compound `CN(C)C/C=C/C(=O)Nc1ccc(C(=O)N2CCCC(Nc3ncc(Cl)c(-c4c[nH]c5ccccc45)n3)C2)cc1` (stereo not drawn) had a % of control in test [1] of 90%.

For the compound `CCN(CC)CCCCNc1ncc2cc(-c3cc(OC)cc(OC)c3)c(NC(=O)NC(C)(C)C)nc2n1`, the % of control in test [2] is 24%. In turn, `Nc1cnc(N2CCc3cc(S(=O)(=O)Nc4c(F)cc(Cl)cc4F)cc(N4CCCC4=O)c32)nc1` [TP-020n] gave a % of control in test [3] of 100%. `CCC(=O)N1CCN(c2ccc(-n3c(=O)ccc4cnc5ccc(-c6cnc7ccccc7c6)cc5c43)cc2C(F)(F)F)CC1` showed a % of control in test [4] of 62%. In turn, `COc1cc(Nc2nc(C)cc(-c3cnn4nc(OC)ccc34)n2)cc(C(F)(F)F)c1` yielded a % of control in test [5] of 100%.

On to `CC[C@@H]1[C@H](F)C(=O)N[C@@H]1COc1nccc2cc(C(N)=O)c(OC)cc12` [ZIMLOVISERTIB], for which the values for the % of inhibition in test [6] and in test [7] were -4.6% and 25.9%, respectively. Turning to `N#Cc1cccc(-c2c[nH]c3ncnc(N4CCOCC4)c23)c1`, the % of inhibition in test [8] was determined as 3%.
